Publication PMC10818380, “Triphenylphosphonium Analogs of Short Peptide Related to Bactenecin 7 and Oncocin 112 as Antimicrobial Agents” (Pharmaceutics, 2024)
Values after ≈ are worked out from the molar mass of the structure shown. Like-named read-outs stand apart in the source and are kept apart here. Square brackets hold non-standard residues; d marks the D form. Peptide text beside a SMILES is read from it. * marks the point of attachment. X2 = c1ccc([P+](CCCCCCCCCCN*)(c2ccccc2)c2ccccc2)cc1; X1 = c1ccc([P+](CCN*)(c2ccccc2)c2ccccc2)cc1

Legend:
70S E. coli ribosome = assay: Competition-binding assay, displacement of BODIPY-Bac(1–10), fluorescence anisotropy; conditions: read-out: apparent dissociation constant (KD)
Procedure: 70S ribosomes were isolated from E. coli MRE600 cells according to a published procedure. The binding of BODIPY-Bac(1–10) to 70S E. coli ribosomes was performed according to the following procedure. BODIPY-Bac(1–10) (16 nM) was incubated with ribosomes (from 0.5 nM to 2000 nM) for 2 h at 26 °C in a buffer containing 20 mM of HEPES-KOH (pH 7.5), 50 mM of NH4Cl, 10 mM of Mg(CH3COO)2, 4 mM of β-mercaptoethanol, and 0.05% Tween-20. The binding affinities of peptides 1 and 2, their TPP analogs 3–5, as well as the control compounds for the E. coli ribosome were analyzed via a competition-binding assay using fluorescently labeled BODIPY-Bac(1–10) or BODIPY-ERY, as described before in [38, 54]. The fluorescent compound (16 nM) was mixed with ribosomes (84 nM for BODIPY-Bac(1–10) and 46 nM for BODIPY-ERY) in the buffer. Solutions of the tested compounds were added to the obtained complexes to final concentrations ranging from 0.01 to 100 µM. The mixtures were incubated for 2 h at 26 °C, and then the values of fluorescence anisotropy were measured with a VICTOR X5 Multilabel Plate Reader (PerkinElmer, Waltham, MA, USA) using a 384-well plate. The excitation wavelength was 485 nm, and the emission wavelength was 535 nm. From the data obtained, apparent dissociation constants were calculated.

[1] = system: bacterial translation (E. coli S30 extract); assay: In vitro translation inhibition of firefly luciferase mRNA, E. coli S30 extract; assay type: biochemical; conditions: 30 µM
Procedure: Briefly, in vitro-transcribed firefly luciferase mRNA (fluc) was translated using the E. coli S30 Extract System for Linear Templates (Promega, Madison, WI, USA). Reaction mixtures (with a 5 μL total volume) supplemented with 0.1 mM of a mixture of all canonical amino acids, 4 U of RiboLock RNase Inhibitor (Thermo Fisher Scientific, Waltham, MA, USA), and 0.1 mM of D-luciferin (Sigma-Aldrich, Burlington, MA, USA) were pre-incubated at RT for 5 min after the addition of the tested compounds at a final concentration of 30 µM. Then, 50 ng of the mRNA was added to each reaction tube, and the mixtures were immediately subjected to continuous chemiluminescence measurements using the VICTOR X5 Multilabel Plate Reader (PerkinElmer, Waltham, MA, USA) at 37 °C for 30 min. The maximal rates of the firefly luciferase (Fluc) accumulation were calculated using the OriginPro 7.5 software. The values were normalized to a positive control (0.3% DMSO, assigned a value of 100%).

[2] = system: E. coli JW5503 (∆tolC) (KanS) pDualrep2; assay: pDualrep2 double-reporter agar plate test; assay type: cell-based; conditions: 1 µL of 10 mM solution on agar plate
Procedure: The “pDualrep2” system was used to evaluate the mechanism of the antimicrobial action of the synthesized compounds. This system is based on the hypersensitive strain E. coli JW5503 (∆tolC) (KanS) transformed with the “pDualrep2” plasmid, which allows one to sort out suppressors of protein synthesis or SOS response inducers. Briefly, 1 µL of 10 mM water solutions of Bac(1–10), Bac(1–10, R/Y), Bac(1–10, R/Y)-Cn-TPP, TPP-C10-Bac(1–10, R/Y), and Onc112 were applied onto the agar plate that already contained a layer of the reporter strain E. coli JW5503 (∆tolC) (KanS) pDualrep2, and then the plate was incubated overnight at 37 °C. The agar plate was scanned using the ChemiDoc^TM Imaging System (Bio-Rad Laboratories, Hercules, CA, USA), containing two channels, “Cy3-blot” (553/574 nm; green pseudocolor) for Turbo Red Fluorescent Protein (TurboRFP) detection and “Cy5-blot” (588/633 nm; red pseudocolor) for Katushka2S fluorescence. […] Levofloxacin (LEV; 50 μg/mL, 1 μL) and erythromycin (ERY; 5 mg/mL, 1 μL) were utilized as positive controls for DNA and protein synthesis inhibitors, respectively.

E. coli BW25113 = assay: microbe, parasite or virus in culture; assay type: cell-based; conditions: E. coli BW25113, 37 °C, 18 h
Procedure: The MIC values for Bac(1–10), Bac(1–10, R/Y), Bac(1–10, R/Y)-Cn-TPP, TPP-C10-Bac(1–10, R/Y), and Onc112 were determined via LB broth microdilution, as recommended by CLSI in the Methods for Dilution Antimicrobial Susceptibility Tests for Bacteria that Grow Aerobically, Approved Standard, 9th ed., CLSI document M07-A9, using in-house-prepared panels. The compounds were diluted in a 96-well microtiter plate to final concentrations ranging from 0.1 to 100 µM in a 200 µL aliquot of the bacterial suspension, followed by incubation at 37 °C for 18 h. The cell concentration was estimated according to the absorbance (A600). The measurements were performed with a VICTOR X5 Multilabel Plate Reader (PerkinElmer, Waltham, MA, USA). The following bacterial strains were used: E. coli BW25113, E. coli JW0368 ΔsbmA, B. subtilis 168, and B. subtilis CFR [39].

A549 = assay: cells
Procedure: The cytotoxicity of the substances under study was tested using the MTT (3-(4,5-dimethylthiazol-2-yl)-2,5-diphenyltetrazolium bromide) assay with some modifications. The detailed procedure for the MTT assay is given in the Supplementary Materials (Section S5).
Two thousand five hundred cells per well for the MCF7, HEK293T, and A549 cell lines or 4000 cells per well for the VA13 cell line were plated in 135 µL of DMEM-F12 media with 10% FBS (both Gibco, Waltham, MA, USA) in a 96-well plate and were incubated in a 5% CO2 incubator for the first 16 h, without treatment. Then 15 µL of media-DMSO solutions of the tested substances were added to the cells (the final DMSO concentrations in the media were 1% or less), and the cells were treated for 72 h with 25 nM–50 µM (eight dilutions) of the tested substances (triplicate each). Serial dilutions of DMSO and doxorubicin were used as controls. The MTT reagent (Paneco LLC, Moscow, Russia) was then added to the cells at a final concentration of 0.5 g/L (10× stock solution in PBS was used) and incubated for 2.5 h at 37 °C in the incubator under an atmosphere of 5%
CO2. The MTT solution was then discarded, and 140 µL of DMSO (PharmaMed LLC, Krasnodar, Russia) was added. The plates were swayed on a shaker (60 rpm) to dissolve the formazan. The absorbance was measured using the VICTOR X5 Multilabel Plate Reader (PerkinElmer, Wa l th a m, MA, USA) at a wavelength of 565 nm (in order to measure formazan concentration). The resu l ts were used to construct a dose-response graph and to estimate IC50 values.
Figure S11.The dependencies of viability of cells after treatment by tested compounds.
(1 picture or pasted object on this page, not shown here)

[3] = read-out: IC50 (50% inhibition of viability of cells), A549, 72 h, MTT

| SMILES | Kd (70S E. coli ribosome; CI (α = 0.05)) [nM] | inhibition of bacterial translation of firefly luciferase (Fluc) mRNA [1] | inhibitory effect on growth of bacterial cells [2] | reporter induction (Katushka2S red pseudocolor = protein synthesis inhibition) [2] | MIC (E. coli BW25113) [µM] | IC50 (A549; [3]) [nM] | Kd (70S E. coli ribosome; Figure S3B) [nM] | IC50 (A549; 72 h) [nM] |
| --- | --- | --- | --- | --- | --- | --- | --- | --- |
| CC[C@H](C)[C@H](NC(=O)[C@H](CCCNC(=N)N)NC(=O)[C@@H](N)CCCNC(=N)N)C(=O)N[C@@H](CCCNC(=N)N)C(=O)N1CCC[C@H]1C(=O)N[C@@H](CCCNC(=N)N)C(=O)N1CCC[C@H]1C(=O)N1CCC[C@H]1C(=O)N[C@@H](Cc1ccc(O)cc1)C(=O)N[C@@H](CC(C)C)C(=O)NCC[P+](c1ccccc1)(c1ccccc1)c1ccccc1 [Compound 3, Bac(1–10, R/Y)-C2-TPP] (H-RRIRPRPPYL-X1; N-terminus assumed) | 260 ± 30 | almost completely | demonstrated an inhibitory effect on the growth of bacterial cells | red pseudocolor reporter induction was observed | 26.3 | > 50000 |  |  |
| CC[C@H](C)[C@H](NC(=O)[C@H](CCCNC(=N)N)NC(=O)[C@@H](N)CCCNC(=N)N)C(=O)N[C@@H](CCCNC(=N)N)C(=O)N1CCC[C@H]1C(=O)N[C@@H](CCCNC(=N)N)C(=O)N1CCC[C@H]1C(=O)N1CCC[C@H]1C(=O)N[C@@H](Cc1ccc(O)cc1)C(=O)N[C@@H](CC(C)C)C(=O)NCCCCCCCCCC[P+](c1ccccc1)(c1ccccc1)c1ccccc1 [Compound 4, Bac(1–10, R/Y)-C10-TPP] (H-RRIRPRPPYL-X2; N-terminus assumed) | 250 ± 40 | almost completely | demonstrated an inhibitory effect on the growth of bacterial cells | red pseudocolor reporter induction was observed | 100 | 9200 ± 900 |  |  |
| CC[C@H](C)[C@H](NC(=O)[C@@H](CCCNC(=N)N)NC(=O)[C@H](CCCNC(=N)N)NC(=O)[C@@H]1CCCN1C(=O)[C@@H]1CCCN1C(=O)[C@H](CCCNC(=N)N)NC(=O)[C@@H]1CCCN1C(=O)[C@H](CCCNC(=N)N)NC(=O)[C@@H]1CCCN1C(=O)[C@H](CC(C)C)NC(=O)[C@H](Cc1ccc(O)cc1)NC(=O)[C@@H]1CCCN1C(=O)[C@@H]1CCCN1C(=O)[C@H](CCCCN)NC(=O)[C@H](CC(=O)O)NC(=O)[C@@H](N)C(C)C)C(=O)N[C@@H](Cc1ccc(O)cc1)C(=O)N[C@@H](CC(N)=O)C(=O)N[C@H](CCCNC(=N)N)C(N)=O [Onc112, reference compound] (H-VDKPPYLPRPRPPR[dR]IYN[dR]-NH2; N-terminus assumed) |  | almost completely |  | red pseudocolor reporter induction was observed | 11.6 (≈ 27.7 µg/mL) |  | 3 ± 1 | > 50000 |
